The source made the active and inactive calls.
Legend:
[1] = target: T1, Heat shock factor protein 1 (Mus musculus, UniProt P38532); experiment: HSF1 potentiators in luciferase reporter cells, confirmation, cell-based, NIH3T3, luminescence, dose retest (AID 435004); assay type: functional;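 further: stress induced by proteasome inhibitor MG132 added 30 min after compound; luciferase reporter driven by HSF1 response element in NIH3T3 cells; actives raise luminescence as potentiators of the MG132 stress response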
T1 sequence (P38532 whole entry): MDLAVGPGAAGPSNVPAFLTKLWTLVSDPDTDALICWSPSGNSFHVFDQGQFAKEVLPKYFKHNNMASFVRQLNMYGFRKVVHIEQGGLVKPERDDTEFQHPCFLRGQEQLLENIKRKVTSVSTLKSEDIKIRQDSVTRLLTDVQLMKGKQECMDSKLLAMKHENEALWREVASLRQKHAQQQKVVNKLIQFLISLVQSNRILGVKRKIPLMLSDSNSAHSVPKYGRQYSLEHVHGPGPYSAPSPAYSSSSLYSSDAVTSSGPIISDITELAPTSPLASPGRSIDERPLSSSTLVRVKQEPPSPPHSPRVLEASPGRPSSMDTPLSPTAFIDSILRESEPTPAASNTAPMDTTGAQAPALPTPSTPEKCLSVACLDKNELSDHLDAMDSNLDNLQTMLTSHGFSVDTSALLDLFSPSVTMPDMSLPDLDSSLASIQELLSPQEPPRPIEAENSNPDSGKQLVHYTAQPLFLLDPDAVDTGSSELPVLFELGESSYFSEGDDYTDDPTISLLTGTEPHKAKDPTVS

[2] = inhibitors of intracellular T. cruzi replication, confirmation, NIH3T3 host cells, beta-gal luminescence (AID 2044); assay type: functional, cell-based;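 further: intracellular parasites grown in NIH/3T3 mouse fibroblasts as host cells; luminescent beta-galactosidase reporter signal from transgenic T. cruzi replicating inside host cells; inhibitors lower the luminescence signal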
[3] = cytotoxicity toward NIH3T3 fibroblasts, dose response, counter-screen, cell-based, ATP luminescence, mouse fibroblasts (AID 2010); assay type: functional;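 further: cells exposed to compound for about 90 hours before reading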
[4] = system: Streptococcus sp. 'group A'; experiment: growth inhibition of control SK(-) GAS strain, dose response, counter-screen for streptokinase expression inhibitor project, luminescence, kanamycin, BacTiterGlo, confirmation (AID 1900); assay type: functional, organism-based
Streptokinase A = target: T2, Streptokinase A (Streptococcus pyogenes serotype M1, UniProt P10520); experiment: S. pyogenes streptokinase expression inhibitors, potency, dose response, plasminogen activation absorbance, OD405 (AID 1914); assay type: functional, Streptococcus pyogenes M1 GAS;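 further: secreted streptokinase activity via plasminogen activation per viability signal from cell pellet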
T2 sequence (P10520 whole entry): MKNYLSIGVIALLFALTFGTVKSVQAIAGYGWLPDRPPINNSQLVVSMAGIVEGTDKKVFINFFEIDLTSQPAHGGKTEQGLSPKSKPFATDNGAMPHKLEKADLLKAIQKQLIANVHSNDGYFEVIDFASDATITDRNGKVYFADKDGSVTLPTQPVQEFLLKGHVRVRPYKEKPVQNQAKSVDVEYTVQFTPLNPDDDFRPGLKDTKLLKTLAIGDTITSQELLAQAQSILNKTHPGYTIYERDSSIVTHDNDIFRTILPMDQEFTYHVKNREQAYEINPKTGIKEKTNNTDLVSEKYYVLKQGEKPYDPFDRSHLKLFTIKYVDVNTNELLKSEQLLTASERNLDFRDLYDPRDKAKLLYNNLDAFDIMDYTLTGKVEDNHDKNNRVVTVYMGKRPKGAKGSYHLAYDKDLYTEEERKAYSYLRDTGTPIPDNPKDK

Streptococcus = experiment: Group A Streptococcus viability loss, dose response, counter-screen for streptokinase expression inhibitor project, luminescence, BacTiterGlo (AID 1915); assay type: functional, organism-based;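 further: potency for reduction of bacterial viability or growth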
[5] = HEp-2 cell cytotoxicity, dose response, cytotoxicity control for RSV inhibitor project, HTS (AID 2410); assay type: functional; conditions: human respiratory syncytial virus
Cytochrome P450 2C19 = Cytochrome P450 2C19 (Homo sapiens, UniProt P33261); experiment: Cytochrome panel assay with activity outcomes. Panel member name: p450-cyp2c19 Compounds with AC50 equal or less than 10 uM are considered active; assay type: functional; conditions: read-out: AC50
Chain of Cytochrome P450 2C19 (P33261 whole entry): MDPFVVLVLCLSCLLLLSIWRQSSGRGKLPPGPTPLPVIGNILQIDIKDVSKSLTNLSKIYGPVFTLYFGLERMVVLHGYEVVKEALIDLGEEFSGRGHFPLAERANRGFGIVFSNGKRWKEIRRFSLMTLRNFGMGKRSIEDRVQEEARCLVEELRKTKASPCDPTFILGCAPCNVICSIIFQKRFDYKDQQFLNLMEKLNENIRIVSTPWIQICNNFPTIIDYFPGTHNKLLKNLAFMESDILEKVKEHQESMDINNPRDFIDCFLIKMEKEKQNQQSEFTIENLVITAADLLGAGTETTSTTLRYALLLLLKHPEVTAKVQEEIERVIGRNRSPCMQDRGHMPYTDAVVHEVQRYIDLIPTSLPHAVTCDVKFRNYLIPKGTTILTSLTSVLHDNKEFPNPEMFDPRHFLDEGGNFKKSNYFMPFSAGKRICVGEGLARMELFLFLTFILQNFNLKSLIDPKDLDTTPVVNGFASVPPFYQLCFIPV

SMILES: CC(=O)c1ccc(N=C(S)N2C(C)CCCC2C)cc1 (stereo unspecified)
- EC50 [1]: > 260 µM (inactive)

SMILES: CCN(CCCC(=O)c1ccc(F)cc1)CCc1ccccc1
- EC50 [2]: 0.111 µM (active)
- EC50 [3]: > 60 µM (not active)

SMILES: Cc1nc(N2CCN(Cc3ccc4c(c3)OCO4)CC2)c2cc(-c3ccccc3)sc2n1
- EC50 [4]: 19.3 µM (active)
- EC50 (Streptokinase A): > 150 µM (not active)
- EC50 (Streptococcus): 112 µM (active)

SMILES: Cc1cc(OCCCn2ccnc2)ccc1C(C)C
- EC50 [2]: 1.99 µM (active)
- EC50 [3]: > 60 µM (not active)

SMILES: Brc1c[nH]c2nc(SC/C=C/c3ccccc3)nc-2c1
- EC50 [1]: 1.37 µM (active)

SMILES: COc1ccc(-n2c(=S)[nH]c3cc(C(=O)Nc4ccc(C)c(F)c4)ccc3c2=O)c(OC)c1
- EC50 [4]: 9.84 µM (active)
- EC50 (Streptokinase A): > 150 µM (not active)
- EC50 (Streptococcus): 14.8 µM (active)

SMILES: COc1ccc(-c2ncc(CN3CCN(CCC(C)C)C(CCO)C3)cn2)cc1 (stereo unspecified)
- EC50 [2]: 0.933 µM (active)
- EC50 [3]: 12.3 µM (active)

SMILES: Cc1cccc(C(=O)N2CCC(=O)N(C(COCc3ccc(Cl)cc3)Cc3ccccc3)CC2)c1 (stereo unspecified)
- CC50 [5]: 19.6 µM (active)

SMILES: Cc1ccccc1Oc1nc2c(C)cccn2c(=O)c1/C=C(\C#N)C(=O)Nc1c(C)n(C)n(-c2ccccc2)c1=O
- EC50 [1]: 12.1 µM (active)

SMILES: O=C(Nc1ncc(Cc2cccc(C(F)(F)F)c2)s1)c1ccc(-c2cccc([N+](=O)[O-])c2)o1
- EC50 [2]: 1.73 µM (active)
- EC50 [3]: 9.52 µM (active)

SMILES: O=C(NC12CC3CC(CC(C3)C1)C2)c1ccc(-c2ccc(Br)cc2)o1
- EC50 [4]: 4.59 µM (active)
- EC50 (Streptokinase A): 35.3 µM (active)
- EC50 (Streptococcus): 9.47 µM (active)

SMILES: CCN(C(=O)c1cc2c(s1)-c1ccccc1OC2)c1cc(OC)ccc1OC
- CC50 [5]: 26.8 µM (active)

SMILES: CCN1CCN(C(CNS(=O)(=O)c2ccc(C)cc2)c2cccnc2)CC1 (stereo unspecified)
- EC50 [4]: > 150 µM (not active)
- EC50 (Streptokinase A): > 150 µM (not active)
- EC50 (Streptococcus): > 150 µM (not active)

SMILES: COc1ccc(Cl)cc1C(=O)NNC(=S)NC(=O)c1cc(-c2ccc(Cl)cc2)nc2ccccc12
- EC50 [4]: 0.202 µM (active)
- EC50 (Streptococcus): 6 µM (active)

SMILES: CCCC(=O)Nc1cc(-c2nn(C)c(=O)c3ccccc23)ccc1OC
- EC50 [1]: > 260 µM (inactive)

SMILES: OCCC1CN(Cc2cc3c(cc2Cl)OCO3)CCN1Cc1ccccc1 (stereo unspecified)
- EC50 [2]: 1.21 µM (active)
- EC50 [3]: > 60 µM (not active)

SMILES: CC(=O)c1cccc(S(=O)(=O)N2CCCC(c3nc(O)c4nnn(Cc5cccc(Cl)c5)c4n3)C2)c1 (stereo unspecified)
- CC50 [5]: > 50 µM (active)

SMILES: C#C[C@@]1(O)CC[C@@H]2[C@@H]3CCC4=CC(=O)CC[C@@H]4[C@H]3CC[C@]21CC
- AC50 (Cytochrome P450 2C19): 0.0794 µM (inconclusive)

SMILES: Cc1ccc(C)c(S(=O)(=O)N2CCN(CC(=O)Nc3cc(C)on3)CC2)c1
- EC50 [1]: > 260 µM (inactive)

SMILES: C=CCn1c(-c2ccc(Cl)cc2)ccc(C#N)c1=O
- CC50 [5]: > 50 µM (active)

SMILES: CC(Oc1ccc(Cl)cc1Cl)C(=O)NCCCCc1ccccc1 (stereo unspecified)
- EC50 [1]: > 260 µM (inactive)

SMILES: Cc1ccc2nc(-c3ccncc3)c(NC3CCCC3)n2c1
- EC50 [2]: 2.29 µM (active)
- EC50 [3]: > 60 µM (not active)

SMILES: COc1ccc(-c2ccc([C@H]3[C@@H]4C=CCC[C@@]4(C)C(=O)N3Cc3ccccc3)c(F)c2)cc1OC
- EC50 [2]: 2.55 µM (active)
- EC50 [3]: 37.1 µM (active)

SMILES: CC1(C)CC(=O)C(/C=N/c2cccnc2)=C(O)C1
- EC50 [1]: 16.6 µM (active)

SMILES: C/C(=N\NC(=O)c1ccccc1N)c1ccc(NC(=O)Cc2ccccc2)cc1
- EC50 [4]: 3.07 µM (active)
- EC50 (Streptokinase A): > 150 µM (not active)
- EC50 (Streptococcus): 16.3 µM (active)

SMILES: C/C(=N\Nc1nc(C)cc(-c2ccccc2)n1)c1ccc(C)o1
- EC50 [1]: > 260 µM (inactive)

SMILES: C=CCn1sc(N)c(C(=O)OCC)c1=S
- CC50 [5]: 24 µM (active)

SMILES: COc1cccc(-c2c(C#N)c(N)nc3c2c(C)nn3-c2ccccc2)c1O
- EC50 [1]: 57.9 µM (active)

From ChEMBL document CHEMBL1201862, “PubChem BioAssay data set” (2004)
